Measurements taken from ChEMBL document CHEMBL4842341, “Discovery of IACS-9779 and IACS-70465 as Potent Inhibitors Targeting Indoleamine 2,3-Dioxygenase 1 (IDO1) Apoenzyme” (J Med Chem, 2021).
Values belong to the compound of their own block, whether it stands above or below them.

Legend:
[1] = in vitro; details: human, liver microsomes
[2] = in vivo; details: NSG, mouse, tumor, po, 125 mg/kg
[3] = in vivo; details: NSG, mouse, plasma, po, 125 mg/kg
[4] = Drug concentration in plasma of NSG mouse xenografted with human SKOV3 cells at 3 mg/kg, po QD measured at 24 hrs post dose; format: ADME, organism-based, SK-OV-3
[5] = Drug concentration in tumor of NSG mouse xenografted with human SKOV3 cells at 3 mg/kg, po QD measured at 24 hrs post dose; format: ADME, organism-based, Neoplasm, SK-OV-3; details: read-out: Drug uptake
[6] = Apparent permeability across apical side to basolateral side in wild type MDCK cells; format: ADME, cell-based, Canis lupus familiaris; details: dog
[7] = Apparent permeability across apical side to basolateral side in MDCK-MDR1 cells; format: ADME, cell-based, Canis lupus familiaris; details: dog
[8] = in vitro; details: rat, liver microsomes
[9] = Apparent permeability across basolateral side to apical side in MDCK-MDR1 cells; format: ADME, cell-based, Canis lupus familiaris; details: dog
[10] = Apparent permeability across basolateral side to apical side in MDCK cells; format: ADME, cell-based, Canis lupus familiaris; details: dog
[11] = in vivo; details: CD1, mouse, iv, 0.3 mg/kg
[12] = in vivo; details: CD1, mouse, iv, 0.3 mg/kg; remark: listed apart in the source
[13] = in vivo; details: CD1, mouse, iv, 0.3 mg/kg; remark: listed apart in the source
[14] = in vivo; details: CD1, mouse, po, 10 mg/kg
[15] = in vivo; details: CD1, mouse, po, 10 mg/kg; remark: listed apart in the source
[16] = in vivo; details: CD1, mouse, iv, 0.3 mg/kg; remark: listed apart in the source
[17] = in vivo; details: NSG, mouse, tumor, po, 125 mg/kg; remark: listed apart in the source
[18] = in vivo; details: NSG, mouse, plasma, po, 125 mg/kg; remark: listed apart in the source
[19] = in vivo; details: CD-1, mouse, iv, 0.3 mg/kg
[20] = in vivo; details: CD-1, mouse, iv, 0.3 mg/kg; remark: listed apart in the source
[21] = Drug concentration in tumor of NSG mouse xenografted with human SKOV3 cells at 125 mg/kg, po BID measured after 12 hrs by LC-MS analysis; format: ADME, organism-based, Neoplasm, SK-OV-3; details: read-out: Drug uptake
[22] = AUC in rat plasma at 250 mg/kg, po QD administered for 7 days; format: ADME, organism-based; set-up: dose 250 mg/kg, time 7 day
[23] = Drug concentration in plasma of NSG mouse xenografted with human SKOV3 cells at 125 mg/kg, po BID measured after 12 hrs by LC-MS analysis; format: ADME, organism-based, SK-OV-3
[24] = in vivo; details: CD-1, mouse, iv, 0.3 mg/kg; remark: listed apart in the source
[25] = in vivo; details: CD-1, mouse, iv, 0.3 mg/kg; remark: listed apart in the source
[26] = in vivo; details: CD-1, mouse, po, 10 mg/kg
[27] = in vivo; details: CD-1, mouse, po, 10 mg/kg; remark: listed apart in the source

CLint scaled at 0.75 h, 1 µM [1]: 490 mL/min/kg
SMILES: CCC(NC(=O)c1ccc(Cl)cc1)[C@@H]1[C@@H]2C[C@@H](Oc3ccnc4ccc(F)cc34)C[C@@H]21 (some centres undefined)

CLint scaled at 0.75 h, 1 µM [1]: 2 mL/min/kg
SMILES: CCC(NC(=O)c1ccc(Cl)cc1)[C@H]1[C@@H]2C[C@@H](n3cnc(C4CC4)n3)C[C@@H]21 (some centres undefined)

CLint scaled at 0.75 h, 1 µM [1]: 0.7 mL/min/kg
SMILES: CCC(NC(=O)c1ccc(Cl)cc1)[C@H]1[C@@H]2C[C@@H](n3cnc4cccc(F)c4c3=O)C[C@@H]21 (some centres undefined)

concentration at 120 h [2]: 12000 nM
concentration at 120 h [3]: 10100 nM
SMILES: CC[C@@H](NC(=O)c1ccc(Cl)cc1)[C@H]1[C@@H]2C[C@@H](n3cnc4ccc(C#N)cc43)C[C@@H]21

concentration at 120 h [2]: 5100 nM
concentration at 120 h [3]: 2800 nM
SMILES: C[C@@H](NC(=O)c1ccc(Cl)cc1)[C@H]1[C@@H]2C[C@@H](n3cnc4cc(F)c(F)cc43)C[C@@H]21

concentration at 24 h [4]: 1900 nM
CLint scaled at 0.75 h, 1 µM [1]: 17 mL/min/kg
concentration at 24 h [5]: 500 nM
SMILES: CCC(c1nc2cc(Cl)ccc2[nH]1)[C@H]1[C@@H]2C[C@@H](c3ccnc4ccc(F)cc34)C[C@@H]21 (some centres undefined)

CLint scaled at 0.75 h, 1 µM [1]: 316 mL/min/kg
Papp A→B [6]: 5.53 ×10⁻⁶ cm/s
Papp A→B [7]: 3.7 ×10⁻⁶ cm/s
CLint scaled at 0.75 h, 1 µM [8]: 956 mL/min/kg
Papp B→A [9]: 2.07 ×10⁻⁶ cm/s
Papp B→A [10]: 5.61 ×10⁻⁶ cm/s
SMILES: CCC(NC(=O)c1ccc(Cl)cc1)[C@H]1[C@@H]2C[C@H](Oc3ccnc4ccccc34)C[C@@H]21 (some centres undefined)

CLint scaled at 0.75 h, 1 µM [1]: 5.5 mL/min/kg
SMILES: CCC(NC(=O)c1ccc(Cl)cc1)[C@H]1[C@@H]2C[C@@H](n3cnc4cc(F)cc(F)c43)C[C@@H]21 (some centres undefined)

CLint scaled at 0.75 h, 1 µM [1]: 227 mL/min/kg
SMILES: O=C(NC[C@H]1[C@H]2C[C@H](Oc3ccnc4ccc(F)cc34)C[C@@H]12)c1ccc(Cl)cc1

CLint scaled at 0.75 h, 1 µM [1]: 17 mL/min/kg
half-life [11]: 33 h
clearance [12]: 0.117 mL/min/kg
Vd [13]: 0.31 L/kg
bioavailability [14]: 62%
Cmax [15]: 44000 nM
AUC(0-inf) [16]: 106 µM·h
SMILES: CC(NC(=O)c1ccc(C#N)cc1)[C@H]1[C@@H]2C[C@@H](Oc3ncnc4cc(F)ccc34)C[C@@H]21 (some centres undefined)

CLint scaled at 0.75 h, 1 µM [1]: 4.5 mL/min/kg
SMILES: CCC(NC(=O)c1ccc(Cl)cc1)[C@H]1[C@@H]2C[C@@H](n3cnc4ncc(C#N)cc43)C[C@@H]21 (some centres undefined)

concentration at 120 h [17]: 52000 nM
concentration at 120 h [18]: 49300 nM
SMILES: CC[C@@H](NC(=O)c1ccc(C#N)cc1)[C@H]1[C@@H]2C[C@@H](n3cnc4cc(F)c(F)cc43)C[C@@H]21

CLint scaled at 0.75 h, 1 µM [1]: 13 mL/min/kg
SMILES: CCC(NC(=O)c1ccc(Cl)cc1)[C@H]1[C@@H]2C[C@@H](NC(=O)c3cncc(F)c3)C[C@@H]21 (some centres undefined)

AUC(0-inf) at 24 h [19]: 0.37 µM·h
Vd at 24 h [20]: 4.5 L/kg
CLint scaled at 0.75 h, 1 µM [1]: 28 mL/min/kg
concentration at 12 h [21]: 610 nM
AUC at 168 h [22]: 95 µM·h
concentration at 120 h [2]: 900 nM
concentration at 12 h [23]: 60 nM
half-life at 24 h [24]: 1.57 h
clearance at 24 h [25]: 33.3 mL/min/kg
bioavailability at 24 h [26]: 39%
Cmax at 24 h [27]: 4100 nM
concentration at 120 h [3]: 20 nM
SMILES: C[C@H](C(=O)Nc1ccc(Cl)cc1)[C@H]1CC[C@@H](c2ccnc3ccc(F)cc32)CC1

CLint scaled at 0.75 h, 1 µM [1]: 18 mL/min/kg
SMILES: CCC(NC(=O)c1ccc(Cl)cc1)[C@H]1[C@@H]2C[C@@H](n3cnc4ccc(F)c(F)c43)C[C@@H]21 (some centres undefined)

CLint scaled at 0.75 h, 1 µM [1]: 115 mL/min/kg
CLint scaled at 0.75 h, 1 µM [8]: 170 mL/min/kg
SMILES: O=C(Nc1ccc(Cl)cc1)N1CCC(CCc2ccnc3ccccc23)CC1

CLint scaled at 0.75 h, 1 µM [1]: 0.46 mL/min/kg
SMILES: CCC(NC(=O)c1ccc(Cl)cc1)[C@H]1[C@@H]2C[C@@H](n3cnc4cc(F)cnc43)C[C@@H]21 (some centres undefined)

concentration at 120 h [2]: 600 nM
concentration at 120 h [3]: 500 nM
SMILES: CC[C@@H](NC(=O)c1ccc(Cl)cc1)[C@H]1[C@@H]2C[C@@H](n3cnc4ccc(Cl)cc43)C[C@@H]21

concentration at 120 h [2]: 100 nM
concentration at 120 h [3]: 10 nM
SMILES: CC[C@@H](NC(=O)c1ccc(Cl)cc1)[C@H]1[C@@H]2C[C@@H](n3c(C)nc4ccc(F)cc43)C[C@@H]21
